What was measured:
[1] = system: S. aureus vancomycin-intermediates (VISA) Met-R strains; assay: MIC determination (NCCLS broth microdilution), VISA Met-R strains; assay type: cell-based, Staphylococcus aureus; conditions: for MIC: antibiotype Oxa, Cip, Clin, Ery
Summary of the method: (§1)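 NCCLS broth microdilution in cation-supplemented Mueller-Hinton broth, final inoculum 5×10^5 from exponential-phase bacteria; 2% NaCl added for methicillin testing. MIC taken as lowest concentration preventing visible growth after 18–24 h at 37 °C, with S. aureus ATCC 29213 as QC strain.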

[2] = system: S. aureus Met-R multiresistant strains; assay: MIC determination (NCCLS broth microdilution), methicillin-resistant multiresistant S. aureus strains; assay type: cell-based, Staphylococcus aureus; conditions: for MIC: antibiotype Oxa, Ery
Summary of the method: as §1

With teicoplanine the MIC ([1]; Strain 51 VISA) was 8 µg/mL, the MIC ([1]; Strain 52 VISA) was 8 µg/mL and the “MIC Range” value ([1]; VISA (2) Met-R) was 8 µg/mL. For the same substance, the “% susceptible at breakpoint” value ([1]; VISA (2) Met-R, NCCLS (1999) breakpoints) was 100%, the “MIC 50%” value ([2]; S. aureus (50) Met-R) was 0,5 mg/l and the “MIC 90%” value ([2]; S. aureus (50) Met-R) was 1 µg/mL. For the same substance, the “MIC Range” value ([2]; S. aureus (50) Met-R) was 0,12-2 mg/l, the “% susceptible at breakpoint” value ([2]; S. aureus (50) Met-R, NCCLS (1999) breakpoints) was 100% and the MIC ([2]; Strain 1, Cip, Clin, Gm) was 0.25 µg/mL. For the same substance, the MIC ([2]; Strain 2, Clin, Fos) was 0.5 µg/mL, the MIC ([2]; Strain 3, Cip, Clin, Gm) was 1 µg/mL and the MIC ([2]; Strain 4, Cip, Gm) was 0.5 µg/mL. The MIC ([2]; Strain 5, Cip, Clin) was 1 µg/mL, the MIC ([2]; Strain 6, Clin, Gm) was 1 µg/mL and the MIC ([2]; Strain 7, Cip, Gm) was 0.25 µg/mL. For the same substance, the MIC ([2]; Strain 8, Cip, Clin) was 0.25 µg/mL, the MIC ([2]; Strain 9, Cip, Clin, Gm) was 0.25 µg/mL and the MIC ([2]; Strain 10, Cip, Clin, Gm) was 0.25 µg/mL. It also gave an MIC ([2]; Strain 11, Clin, Rif) of 1 µg/mL, an MIC ([2]; Strain 12, Cip, Clin) of 1 µg/mL and an MIC ([2]; Strain 13, Cip, Clin) of 1 µg/mL. It also gave an MIC ([2]; Strain 14, Clin, Cip) of 0.5 µg/mL, an MIC ([2]; Strain 15, Cip, Clin, Gm) of 0.25 µg/mL and an MIC ([2]; Strain 16, Cip, Clin) of 1 µg/mL. The MIC ([2]; Strain 17, Cip, Clin) was 0.25 µg/mL, the MIC ([2]; Strain 18, Cip, Clin, Gm) was 1 µg/mL and the MIC ([2]; Strain 19, Cip, Clin, Gm) was 1 µg/mL. The MIC ([2]; Strain 20, Cip, Clin, Gm) was 0.25 µg/mL, the MIC ([2]; Strain 21, Cip, Clin, Gm) was 0.5 µg/mL and the MIC ([2]; Strain 22, Cip, Clin) was 0.25 µg/mL. For the same substance, the MIC ([2]; Strain 23, Cip, Clin, Gm) was 0.5 µg/mL, the MIC ([2]; Strain 24, Cip, Clin, Gm) was 0.5 µg/mL and the MIC ([2]; Strain 25, Cip, Clin, Gm) was 1 µg/mL. It also gave an MIC ([2]; Strain 26, Cip, Clin, Fos, Gm) of 1 µg/mL, an MIC ([2]; Strain 27, Cip, Clin, Fos, Gm) of 1 µg/mL and an MIC ([2]; Strain 28, Cip, Clin, Gm) of 0.5 µg/mL. It also gave an MIC ([2]; Strain 29, Clin, Fos) of 0.5 µg/mL, an MIC ([2]; Strain 30, Cip, Clin, Gm, SXT, Dox) of 1 µg/mL and an MIC ([2]; Strain 31, Cip, Clin, Fox, Gm) of 0.5 µg/mL. For the same substance, the MIC ([2]; Strain 32, Cip, Clin, Gm, SXT, Rif) was 0.5 µg/mL, the MIC ([2]; Strain 33, Cip, Clin, Gm) was 0.5 µg/mL and the MIC ([2]; Strain 34, Cip, Clin, Gm) was 0.25 µg/mL. It also gave an MIC ([2]; Strain 35, Cip, Clin, Gm) of 0.5 µg/mL, an MIC ([2]; Strain 36, Cip, Clin, Fos) of 1 µg/mL and an MIC ([2]; Strain 37, Cip, Clin, Fos, Gm) of 0.25 µg/mL. The MIC ([2]; Strain 38, Cip, Gm) was 0.25 µg/mL, the MIC ([2]; Strain 39, Cip, Clin, Fos, Gm) was 0.25 µg/mL and the MIC ([2]; Strain 40, Cip, Clin, Gm) was 0.25 µg/mL. It also gave an MIC ([2]; Strain 41, Cip, Clin) of 0.25 µg/mL, an MIC ([2]; Strain 42, Cip, Clin, Gm) of 0.12 µg/mL and an MIC ([2]; Strain 43, Cip, Clin, Gm) of 0.5 µg/mL. For the same substance, the MIC ([2]; Strain 44, Cip, Clin, Gm, Rif, Dox) was 1 µg/mL, the MIC ([2]; Strain 45, Cip, Clin, Gm, Rif, Dox, Fos) was 0.5 µg/mL and the MIC ([2]; Strain 46, Clin, Fos) was 0.25 µg/mL. It also gave an MIC ([2]; Strain 47, Cip, Clin, Gm) of 0.12 µg/mL, an MIC ([2]; Strain 48, Cip, Clin) of 2 µg/mL and an MIC ([2]; Strain 49, Cip, Gm) of 0.5 µg/mL. It also gave an MIC ([2]; Strain 50, Cip, Clin, Gm, Rif, Dox) of 0.5 µg/mL.

From patent publication US6589993B2, “Treating vancomycin-intermediates and multiresistant staphylococci infection with thiamphenicol or a salt thereof” (Zambon Group S.p.A., priority 2000, dated 2003)
